# In patent US9409845B2, “Alpha-(3,5-dimethoxybenzylidene)-alpha′-hydrocarbyl methylene cyclic ketone and preparation method thereof” (PHARMAXYN LABORATORIES LTD., priority 2012, dated 2016):
# Where two headings read alike, the source gives them in different places.
# Assays:
# [1] = tested on: human hepatoma HepG2 tumor cell lines; experiment: MTT antiproliferation assay, HepG2; type: cell-based; conditions: for IC50: MTT, 48 h
# Protocol: (§1) The effects on tumor cell proliferation: the antiproliferative activities of α-(3,5-dimethoxy-benzylidene)-α′-hydrocarbonyl methylene cyclic ketone on human hepatoma HepG2 tumor cell lines and human cutaneous melanoma A16-F10 cell lines were evaluated using methyl thiazolyl tetrazolium (MTT) assay.
# (§2) Experimental procedures are performed as follows: tumor cells in DMEM culture medium containing 10% fetal bovine serum, 100 U·mL^−1 penicillin and 100 U·mL^−1 streptomycin were cultured in an incubator under 5% CO2 and saturated humidity at 37. Test compounds were dissolved in dimethyl sulfoxide and then diluted with DMEM culture medium to the corresponding concentration, wherein the final concentration of dimethyl sulfoxide was less than 0.01%.
# (§3) Negative control group, the blank control group and experimental groups were separately set up, each group with three double-wells. The negative control group was only added with cells but without the drug, the blank control group wad only added with dimethyl sulfoxide solution. The experimental group was added at each well with 11 μL solution containing different concentrations of the sample to be tested, such that the final concentration of the drug were […]. The cells were cultured for additional 48 h in a incubator with 5% CO2 at 37, subsequently the culture solution was gently sucked out and each well was added with 200 μL 0.5 mg/mL of MTT solution. The cells were cultured for another 6 h, then the MTT culture solution was sucked out and each well was added with 150 μL dimethyl sulfoxide, followed by oscillation dissolved for 10 min. The absorbance OD values in each well were measured at the measurement wavelength 570 nm and the reference wavelength 630 nm using a microplate reader.
# [2] = tested on: human cutaneous melanoma A16-F10 cell lines; experiment: MTT antiproliferation assay, A16-F10; type: cell-based
# Protocol: as §1, §2, §3
# EGFR = EGFR (Homo sapiens (Human), UniProt P00533); experiment: EGFR kinase autophosphorylation, time-resolved fluorescence; type: biochemical; conditions: Table 1
# Sequence of EGFR (P00533 25-1210, species assumed): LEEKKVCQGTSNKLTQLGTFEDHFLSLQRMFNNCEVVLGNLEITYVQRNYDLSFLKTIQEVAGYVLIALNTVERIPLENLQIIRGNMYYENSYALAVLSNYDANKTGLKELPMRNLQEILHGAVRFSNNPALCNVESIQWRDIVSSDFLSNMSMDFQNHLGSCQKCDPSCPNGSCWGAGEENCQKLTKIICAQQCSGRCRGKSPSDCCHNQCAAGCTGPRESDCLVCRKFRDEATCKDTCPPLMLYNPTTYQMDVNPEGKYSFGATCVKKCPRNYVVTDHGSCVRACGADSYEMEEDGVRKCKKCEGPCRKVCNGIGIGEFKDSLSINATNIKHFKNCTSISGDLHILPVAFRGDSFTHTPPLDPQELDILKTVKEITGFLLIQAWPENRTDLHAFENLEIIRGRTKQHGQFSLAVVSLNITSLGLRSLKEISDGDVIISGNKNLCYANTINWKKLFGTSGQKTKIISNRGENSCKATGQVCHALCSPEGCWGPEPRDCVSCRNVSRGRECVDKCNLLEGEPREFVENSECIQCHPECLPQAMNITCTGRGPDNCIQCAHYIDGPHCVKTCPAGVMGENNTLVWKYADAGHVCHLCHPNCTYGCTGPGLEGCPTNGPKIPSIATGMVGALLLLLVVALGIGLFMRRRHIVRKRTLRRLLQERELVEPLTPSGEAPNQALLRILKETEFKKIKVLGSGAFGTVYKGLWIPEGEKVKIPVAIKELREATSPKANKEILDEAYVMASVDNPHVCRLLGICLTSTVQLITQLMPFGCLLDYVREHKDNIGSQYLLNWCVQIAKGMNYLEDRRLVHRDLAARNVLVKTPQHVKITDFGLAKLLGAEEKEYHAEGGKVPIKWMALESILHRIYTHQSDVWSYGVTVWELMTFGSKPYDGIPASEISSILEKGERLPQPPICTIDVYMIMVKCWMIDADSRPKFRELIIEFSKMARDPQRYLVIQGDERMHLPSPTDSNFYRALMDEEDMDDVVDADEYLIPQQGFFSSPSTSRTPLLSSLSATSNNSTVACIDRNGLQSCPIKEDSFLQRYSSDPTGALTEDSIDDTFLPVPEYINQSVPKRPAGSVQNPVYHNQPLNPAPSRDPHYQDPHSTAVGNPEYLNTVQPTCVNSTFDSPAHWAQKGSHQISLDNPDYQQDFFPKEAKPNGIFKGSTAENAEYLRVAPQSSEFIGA
# Protocol: Determination of the inhibitory effect of the compound on EGFR: the kinase activity of EGFR was detected according to time-resolved fluorescence detection technology to evaluate automatic phosphorylation levels. The test compound was dissolved in 100% DMSO, diluted with 25 mM HEPES (pH=7.4) to the desired concentration, added into each well with 10 μL of the test compounds and 10 μL solution containing 5 ng EGFR, then cultured for 10 min at room temperature using the recombinase diluted by 100 mM HEPES with a dilution ratio of 1:80, subsequently added with 10 μL solution containing 20 mM HEPES, 2 mM MnCl2, 100 μM Na3VO4, 1 mM DTT buffer, and 20 μL of 0.1 mM ATP and 50 mM MgCl2 and cultured for 1 h. The positive group in each plate was added with ATP-MgCl2 enzyme, the negative control group without adding with ATP-MgCl2 enzyme, the liquid was sucked out completely after cultured for 1 h, and each well was washed with buffer for three times. The wells were added with 75 μL anti-phosphorylated tyrosine antibody containing 400 ng europium labeling and cultured 1 h, washed, then added with enhancing solution.
# [3] = Homo sapiens, HepG2, Table 2, read-out: Anti-proliferative effect on HepG2 tumor cells IC50
# [4] = Homo sapiens, A16-F10, Table 1, MTT, 48 h, read-out: anti-proliferation IC50 A16-F10
# [5] = Homo sapiens, HepG2, Table 1, read-out: anti-proliferation IC50 Hep G2
# [6] = Table 1, MTT, 48 h, read-out: anti-proliferation IC50 A16-F10
# [7] = Table 1, read-out: anti-proliferation IC50 Hep G2
compound,measurement,setting,value
"COc1cc(/C=C2\CC/C(=C\c3ccc(F)cc3)C2=O)cc(OC)c1 [(2E,5E)-2-(3,5-dimethoxybenzylidene)-5-(4-fluorobenzylidene)cyclopentanone]",IC50,[1]; [3],79.9 µM
"COc1cc(/C=C2\CC/C(=C\c3ccccc3)C2=O)cc(OC)c1 [(2E,5E)-2-(3,5-dimethoxybenzylidene)-5-benzylidenecyclopentanone]",IC50,[1]; [3],11.3 µM
same,anti-proliferative effect on HepG2 tumor cell lines (in words),[1]; comparison,significantly stronger than curcumin
"COc1cc(/C=C2\CCC/C(=C\c3cc(OC)cc(OC)c3)C2=O)cc(OC)c1 [(2E,6E)-2,6-bis (3,5-dimethoxybenzylidene)cyclohexanone]",IC50,[2]; [4],4.71 µM
same,IC50,[1]; [5],8.56 µM
same,IC50,EGFR,2.08 µM
"COc1ccc(/C=C2\CCC/C(=C\c3cc(OC)cc(OC)c3)C2=O)cc1 [(2E,6E)-2-(3,5-dimeth-oxybenzylidene)-6-(4-methoxybenzylidene)cyclohexanone]",IC50,EGFR,18.7 µM
"COc1cc(/C=C2\CCC/C(=C\c3ccc(OC)c(O)c3)C2=O)cc(OC)c1 [(2E,6E)-2-(3,5-dimethoxy-benzylidene)-6-(3-hydroxy-4-methoxybenzylidene)cyclohexanone]",IC50,EGFR,5.37 µM
same,melting point,,131.2 to 131.6 °C
"COc1cc(/C=C2\CCC/C(=C\c3ccccc3)C2=O)cc(OC)c1 [(2E,6E)-2-(3,5-dimethoxy-benzylidene)-6-benzylidene cyclohexanone]",IC50,EGFR,1.68 µM
"COc1cc(/C=C2\CCC/C(=C\c3ccccc3Br)C2=O)cc(OC)c1 [(2E,6E)-2-(3,5-dimethoxybenzyl-idene)-6-(2-bromobenzylidene)cyclohexanone]",IC50,[2]; [6],12.4 µM
same,IC50,[1]; [7],32.2 µM
same,IC50,EGFR,8.08 µM
"COc1cc(/C=C2\CCC/C(=C\c3ccccc3Cl)C2=O)cc(OC)c1 [(2E,6E)-2-(3,5-dimethoxybenzyl-idene)-6-(2-chlorobenzylidene)cyclohexanone]",IC50,EGFR,1.54 µM
"COc1cc(/C=C2\CCC/C(=C\c3ccccc3OC)C2=O)cc(OC)c1 [(2E,6E)-2-(3,5-dimethoxybenzyl-idene)-6-(2-methoxybenzylidene)cyclohexanone]",IC50,[2]; [6],> 200 µM
same,IC50,[1]; [7],> 200 µM
"COc1cc(/C=C2\CCC/C(=C\c3cccc(Cl)c3)C2=O)cc(OC)c1 [(2E,6E)-2-(3,5-dimethoxybenzyl-idene)-6-(3-chlorobenzylidene)cyclohexanone]",IC50,EGFR,2.27 µM
"COc1cccc(/C=C2\CCC/C(=C\c3cc(OC)cc(OC)c3)C2=O)c1 [(2E,6E)-2-(3,5-dimethoxybenzyl-idene)-6-(3-methoxybenzylidene)cyclohexanone]",IC50,EGFR,6.13 µM
"COc1cc(/C=C2\CCC/C(=C\c3ccc(Br)cc3)C2=O)cc(OC)c1 [(2E,6E)-2-(3,5-dimethoxybenzyl-idene)-6-(4-bromophenyl-methylene)cyclohexanone]",IC50,EGFR,7.12 µM
"COc1cc(/C=C2\CCC/C(=C\c3ccc(Cl)cc3)C2=O)cc(OC)c1 [(2E,6E)-2-(3,5-dimethoxybenzyl-idene)-6-(4-chlorobenzylidene)cyclohexanone]",IC50,[2]; [6],18.4 µM
same,IC50,[1]; [7],25.5 µM
same,IC50,EGFR,15.3 µM
"COc1cc(/C=C2\CCC/C(=C\c3ccc(N(C)C)cc3)C2=O)cc(OC)c1 [(2E,6E)-2-(3,5-dimethoxybenzyl-idene)-6-(4-dimethylaminobenzylidene)cyclohexanone]",IC50,[2]; [6],5.84 µM
same,IC50,[1]; [7],11.8 µM
same,IC50,EGFR,3.98 µM
"COc1cc(/C=C2\CCC/C(=C\c3ccc(F)cc3)C2=O)cc(OC)c1 [(2E,6E)-2-(3,5-dimethoxybenzyl-idene)-6-(4-fluorobenzylidene)cyclohexanone]",IC50,[2]; [6],7.63 µM
same,IC50,[1]; [7],12.1 µM
same,IC50,EGFR,5.69 µM
"COc1cc(/C=C2\CCC/C(=C\c3ccc(S(C)(=O)=O)cc3)C2=O)cc(OC)c1 [(2E,6E)-2-(3,5-dimethoxybenzyl-idene)-6-(4-methylsulphonylbenzylidene)cyclohexanone]",IC50,EGFR,1.96 µM
"COc1cc(/C=C2\CCC/C(=C\C3CCCCC3)C2=O)cc(OC)c1 [(2E,6E)-2-(3,5-dimethoxybenzyl-idene)-6-(cyclohexylmethylene)cyclohexanone]",IC50,[2]; [6],12.2 µM
same,IC50,[1]; [7],17.2 µM
same,IC50,EGFR,7.52 µM
"COc1cc(/C=C2\CCC/C(=C\c3ccccc3F)C2=O)cc(OC)c1 [(2E,6E)-2-(3,5-dimethoxybenzylidene)-6-(2-fluorobenzylidene)cyclohexanone]",IC50,[2]; [4],5.64 µM
same,IC50,[1]; [5],7.53 µM
same,IC50,EGFR,2.17 µM
"COc1cc(/C=C2\CCC/C(=C\c3ccc(O)c(O)c3)C2=O)cc(OC)c1 [(2E,6E)-2-(3,5-dimethoxybenzylidene)-6-(3,4-dihydroxybenzylidene)cyclohexanone]",IC50,[2]; [4],0.71 µM
same,IC50,"[2]; Homo sapiens, A16-F10, cell line not given, read-out: anti-tumor activity IC50",< 1 µM
same,IC50,[1]; [5],1.01 µM
same,IC50,EGFR,0.43 µM
"COc1cc(/C=C2\CCC/C(=C\c3cc(C(C)(C)C)c(O)c(C(C)(C)C)c3)C2=O)cc(OC)c1 [(2E,6E)-2-(3,5-dimethoxybenzylidene)-6-(3,5-di-t-butyl-4-hydroxybenzylidene)cyclohexanone]",IC50,EGFR,4.81 µM
"COc1cc(/C=C2\CCC/C(=C\c3cccc(Br)c3)C2=O)cc(OC)c1 [(2E,6E)-2-(3,5-dimethoxybenzylidene)-6-(3-bromobenzylidene)cyclohexanone]",IC50,EGFR,6.85 µM
"COc1cc(/C=C2\CCC/C(=C\c3ccc(O)cc3)C2=O)cc(OC)c1 [(2E,6E)-2-(3,5-dimethoxybenzylidene)-6-(4-hydroxybenzylidene)cyclohexanone]",IC50,EGFR,4.66 µM
"COc1cc(/C=C/C(=O)CC(=O)/C=C/c2ccc(O)c(OC)c2)ccc1O [curcumin, reference compound]",IC50,[2]; [4],18.7 µM
"C#Cc1cccc(Nc2ncnc3cc(OCCOC)c(OCCOC)cc23)c1 [erlotinib, reference compound]",IC50,[2]; [4],0.2 µM
